# What was measured:
# [1] = Solubility of the compound in 10% DMSO v/v at 1 to 200 uM measured up to 120 mins; type: physicochemical; details: 2 h
# Trypanosoma cruzi [2] = test: Antitrypanosomal activity against axenic cultures of Trypanosoma cruzi Y ATCC 50832GFP epimastigotes supplemented with fresh medium containing compound daily for 5 days by coulter counting method; type: functional, organism-based; details: 120 h
# [3] = test system: Trypanosoma brucei brucei; test: Antitrypanosomal activity against Trypanosoma brucei brucei ATCC PRA-381 procyclic trypomastigotes supplemented with fresh medium containing compound daily for 4 days by coulter counting method; type: functional, organism-based; details: ATCC PRA-381, 96 h
# NHDF = test: Cytotoxicity against HDF cells assessed as reduction in cell viability measured after 48 hrs by resazurin dye based fluorescence assay; details: human
# [4] = target: Cruzipain (Trypanosoma cruzi) (UniProt P25779); test: Irreversible inhibition of Trypanosoma cruzi cruzain assessed as ratio of Kinact to Ki using Cbz-Phe-Arg-AMC as substrate by fluorescence assay
# Cruzipain [5] = target: T1, Cruzipain (Trypanosoma cruzi, UniProt P25779); test: Inhibition of Trypanosoma cruzi cruzain assessed as rate constant for enzyme-inhibitor complex using Cbz-Phe-Arg-AMC as substrate and measured up to 40 mins by fluorescence assay; details: read-out: Ki(app)
# Trypanosoma cruzi [6] = test: Antitrypanosomal activity against Trypanosoma cruzi Ca-I/72 infected in mouse C2C12 cells measured after 48 hrs by 4',6-diamidino-2-phenylindole staining based microscopic analysis; type: functional, organism-based; details: Ca-I/72, C2C12, 48 h
# C2C12 = test: Cytotoxicity against mouse C2C12 cells assessed as reduction in cell viability measured after 48 hrs by 4',6-diamidino-2-phenylindole staining based microscopic analysis; details: c2c12, 48 h
# [7] = test system: Trypanosoma brucei brucei; test: Antitrypanosomal activity against Trypanosoma brucei brucei ATCC PRA-383 bloodstream forms supplemented with fresh medium containing compound daily for 4 days by coulter counting method; details: ATCC PRA-383, 96 h
# [8] = Glutathione reactivity of the compound in 10% DMSO (v/v)/pH 8 Tris buffer assessed as GSH adduct formation by measuring rate of-thiolation at 2:1 molar ratio of GSH/inhibitor by HPLC-MS analysis; type: ADME
# [9] = Glutathione reactivity of the compound in 10% DMSO (v/v)/pH 8 Tris buffer assessed as GSH adduct formation by measuring equilibrium constant measured after 90 mins by HPLC-MS analysis; type: ADME
# [10] = Glutathione reactivity of the compound in 10% DMSO (v/v)/pH 8 Tris buffer assessed as GSH adduct formation by measuring retention time at 0.5 mM by HPLC-MS analysis; type: ADME; details: pH 8, 500 µM
# [11] = Glutathione reactivity of the compound in 10% DMSO (v/v)/pH 8 Tris buffer assessed as GSH adduct formation by measuring rate of-thiolation at 0.5 mM by HPLC-MS analysis; type: ADME; details: pH 8, 500 µM
# Trypanosoma cruzi [12] = test: Antitrypanosomal activity against Trypanosoma cruzi Brazil epimastigotes measured after 48 hrs by [3H]thymidine incorporation based beta-counting method; type: functional, organism-based
# [13] = target: Cruzipain (Trypanosoma cruzi) (UniProt P25779); test: Reversible inhibition of Trypanosoma cruzi cruzain assessed as rate constant K4 using Cbz-Phe-Arg-AMC as substrate preincubated for 1 hr followed by enzyme-compound mixture dilution in presence of substrate by fluorescence assay
# Cruzipain [14] = target: T1, Cruzipain; test: Inhibition of Trypanosoma cruzi cruzain using Cbz-Phe-Arg-AMC as substrate and measured up to 40 mins by fluorescence assay
# [15] = target: Cruzipain (Trypanosoma cruzi) (UniProt P25779); test: Reversible inhibition of Trypanosoma cruzi cruzain assessed as rate constant K3 using Cbz-Phe-Arg-AMC as substrate preincubated for 1 hr followed by enzyme-compound mixture dilution in presence of substrate by fluorescence assay
# Procathepsin L = Procathepsin L (Homo sapiens, UniProt P07711); test: Inhibition of human Cathepsin L assessed as rate constant for enzyme-inhibitor-substrate complex using Cbz-Phe-Arg-AMC as substrate measured up to 40 mins by fluorescence assay
# Cathepsin B = Cathepsin B (Homo sapiens, UniProt P07858); test: Inhibition of human Cathepsin B assessed as rate constant for enzyme-inhibitor-substrate complex using Cbz-Phe-Arg-AMC as substrate measured up to 40 mins by fluorescence assay
# Cathepsin S = Cathepsin S (Homo sapiens, UniProt P25774); test: Inhibition of recombinant human Cathepsin S expressed in Escherichia coli assessed as rate constant for enzyme-inhibitor-substrate complex using Cbz-Phe-Arg-AMC as substrate measured up to 40 mins by fluorescence assay
# [16] = Selectivity ratio of Ki for human Cathepsin L to Ki for Trypanosoma cruzi cruzain; type: toxicity
# [17] = Selectivity ratio of Ki for human Cathepsin B to Ki for Trypanosoma cruzi cruzain; type: toxicity
# [18] = Selectivity ratio of Ki for human Cathepsin S to Ki for Trypanosoma cruzi cruzain; type: toxicity
# Trypanosoma cruzi [19] = test: Potency index, ratio of K11777 IC50 to test compound IC50 for axenic cultures of Trypanosoma cruzi Y ATCC 50832GFP epimastigotes; type: functional
# [20] = Selectivity index, ratio of CC50 for HDF cells to EC50 for Trypanosoma cruzi Ca-I/72 infected in mouse C2C12 cells; type: toxicity, cell-based; details: read-out: Ratio CC50/EC50
# T1 sequence (P25779 whole entry): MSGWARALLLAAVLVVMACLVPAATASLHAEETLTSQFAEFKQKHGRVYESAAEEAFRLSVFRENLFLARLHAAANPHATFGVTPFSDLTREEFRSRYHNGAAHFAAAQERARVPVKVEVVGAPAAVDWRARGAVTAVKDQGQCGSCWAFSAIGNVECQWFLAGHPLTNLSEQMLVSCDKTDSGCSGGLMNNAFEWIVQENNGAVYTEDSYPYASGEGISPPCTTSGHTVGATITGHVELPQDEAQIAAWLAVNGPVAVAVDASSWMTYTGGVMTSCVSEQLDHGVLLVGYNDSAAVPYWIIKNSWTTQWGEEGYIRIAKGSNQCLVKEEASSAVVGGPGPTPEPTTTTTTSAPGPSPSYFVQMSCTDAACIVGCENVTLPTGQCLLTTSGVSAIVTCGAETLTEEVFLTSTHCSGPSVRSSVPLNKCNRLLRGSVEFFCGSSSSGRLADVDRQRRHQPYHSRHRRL
# Chain of Cruzipain (Trypanosoma cruzi) (P25779 123-467 limits assumed): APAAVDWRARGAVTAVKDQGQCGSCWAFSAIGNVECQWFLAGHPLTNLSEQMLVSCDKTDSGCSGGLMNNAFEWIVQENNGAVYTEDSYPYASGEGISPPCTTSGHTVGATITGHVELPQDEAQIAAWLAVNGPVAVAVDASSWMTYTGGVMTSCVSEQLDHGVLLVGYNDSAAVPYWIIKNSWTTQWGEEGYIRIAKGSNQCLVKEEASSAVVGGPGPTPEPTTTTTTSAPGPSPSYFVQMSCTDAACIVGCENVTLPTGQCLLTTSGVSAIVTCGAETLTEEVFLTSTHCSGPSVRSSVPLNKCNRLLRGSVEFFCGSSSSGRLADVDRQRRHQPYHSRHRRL
# Chain of Procathepsin L (P07711 whole entry): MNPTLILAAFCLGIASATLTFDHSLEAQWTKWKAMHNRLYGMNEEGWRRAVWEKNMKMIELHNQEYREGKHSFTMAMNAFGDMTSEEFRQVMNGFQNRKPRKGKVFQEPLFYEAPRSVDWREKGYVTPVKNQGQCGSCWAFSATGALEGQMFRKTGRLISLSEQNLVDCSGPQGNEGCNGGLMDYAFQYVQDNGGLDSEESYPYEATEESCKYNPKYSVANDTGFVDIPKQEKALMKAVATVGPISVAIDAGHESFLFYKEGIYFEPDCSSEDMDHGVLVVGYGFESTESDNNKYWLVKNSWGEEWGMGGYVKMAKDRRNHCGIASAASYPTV
# Chain of Cathepsin S (P25774 whole entry): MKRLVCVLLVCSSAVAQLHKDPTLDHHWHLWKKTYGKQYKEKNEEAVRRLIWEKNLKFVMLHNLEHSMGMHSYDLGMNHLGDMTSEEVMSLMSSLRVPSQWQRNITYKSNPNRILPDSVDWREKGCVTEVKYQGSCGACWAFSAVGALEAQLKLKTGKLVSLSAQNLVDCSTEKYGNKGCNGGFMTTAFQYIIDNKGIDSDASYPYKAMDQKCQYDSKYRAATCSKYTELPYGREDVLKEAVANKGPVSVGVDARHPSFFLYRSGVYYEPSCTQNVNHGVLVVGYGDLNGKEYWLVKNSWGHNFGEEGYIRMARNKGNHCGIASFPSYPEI
smiles,measurement,setting,value
O=C(N[C@@H](Cc1ccccc1)C(=O)N[C@H](/C=C/c1ccc([N+](=O)[O-])cc1)Cc1ccccc1)OCc1ccccc1,solubility,[1],<= 2 uM
O=C(N[C@@H](Cc1ccccc1)C(=O)N[C@H](/C=C/c1ncco1)Cc1ccccc1)OCc1ccccc1,EC50,Trypanosoma cruzi [2],> 20 µM
same,EC50,[3],27 µM
same,CC50,NHDF,> 100 µM
CN1CCN(C(=O)N[C@@H](Cc2ccccc2)C(=O)N[C@H](/C=C/C(N)=O)CCc2ccccc2)CC1,kinact/Ki,[4],1900 M⁻¹ s⁻¹
O=C(N[C@@H](Cc1ccccc1)C(=O)N[C@H](/C=C/c1ncccn1)CCc1ccccc1)OCc1ccccc1,Ki,Cruzipain [5],> 35 µM
O=C(N[C@@H](Cc1ccccc1)C(=O)N[C@H](/C=C/c1ccccn1)CCc1ccccc1)OCc1ccccc1,EC50,Trypanosoma cruzi [2],> 20 µM
same,EC50,Trypanosoma cruzi [6],5.9 µM
same,CC50,C2C12,> 10 µM
same,EC50,[3],> 10 µM
same,CC50,NHDF,> 100 µM
same,EC50,[7],4 µM
C[n+]1ccsc1/C=C/[C@H](Cc1ccccc1)NC(=O)[C@H](Cc1ccccc1)NC(=O)OCc1ccccc1.[I-],K,[8],0.015 mM⁻¹ s⁻¹
same,Ke,[9],930 M⁻¹
same,Retention_time,[10],3.61 min
CN1CCN(C(=O)N[C@@H](Cc2ccccc2)C(=O)N[C@H](/C=C/S(=O)(=O)c2ccccc2)CCc2ccccc2)CC1 [K-777],K,[11],0.00028 s⁻¹
same,Retention_time,[10],4.64 min
same,EC50,Trypanosoma cruzi [2],> 20 µM
same,EC50,Trypanosoma cruzi [6],0.7 µM
same,CC50,C2C12,> 10 µM
same,EC50,[3],1.7 µM
same,CC50,NHDF,60 to 100 µM
same,EC50,Trypanosoma cruzi [12],60 µM
same,EC50,[7],0.09 µM
O=C(N[C@@H](Cc1ccccc1)C(=O)N[C@H](/C=C/c1ncccn1)Cc1ccccc1)OCc1ccccc1,K,[13],0.0018 s⁻¹
same,solubility,[1],>= 100 uM
same,CC50,C2C12,> 10 µM
same,CC50,NHDF,> 100 µM
C[n+]1ccccc1/C=C/[C@H](CCc1ccccc1)NC(=O)[C@H](Cc1ccccc1)NC(=O)OCc1ccccc1,Ki,Cruzipain [5],0.76 µM
same,K,[8],0.054 mM⁻¹ s⁻¹
same,Ke,[9],2400 M⁻¹
same,Retention_time,[10],4.72 min
same,K,[13],0.00019 s⁻¹
same,solubility,[1],>= 50 uM
same,Ki,Cruzipain [14],2 to 4.3 µM
same,K,[15],0.0012 to 0.004 s⁻¹
same,Ki,Procathepsin L,880 nM
same,Ki,Cathepsin B,37 µM
same,Ki,Cathepsin S,320 nM
same,Ratio Ki,[16],> 10
same,Ratio Ki,[17],> 10
same,Ratio Ki,[18],> 10
same,EC50,Trypanosoma cruzi [2],2.1 µM
same,Ratio IC50,Trypanosoma cruzi [19],10
same,EC50,Trypanosoma cruzi [6],5.4 µM
same,CC50,C2C12,> 10 µM
same,EC50,[3],5.9 µM
same,CC50,NHDF,> 100 µM
same,selectivity ratio,[20],> 20
same,EC50,[7],2.8 µM
CN1CCN(C(=O)N[C@@H](Cc2ccccc2)C(=O)N[C@H](/C=C/c2ncccn2)CCc2ccccc2)CC1,Ki,Cruzipain [5],> 10 µM
same,EC50,Trypanosoma cruzi [2],20 µM
same,EC50,[3],15 µM
same,EC50,[7],> 20 µM
COc1ccnc(/C=C/[C@H](CCc2ccccc2)NC(=O)[C@H](Cc2ccccc2)NC(=O)OCc2ccccc2)c1,Ki,Cruzipain [5],> 5 µM
C[n+]1ccccc1/C=C/[C@H](Cc1ccccc1)NC(=O)[C@H](Cc1ccccc1)NC(=O)OCc1ccccc1.[I-],K,[8],0.037 mM⁻¹ s⁻¹
same,Ke,[9],7400 M⁻¹
same,solubility,[1],>= 50 uM
same,Ratio Ki,[16],>= 3
same,Ratio Ki,[17],40
same,Ratio Ki,[18],>= 3
same,EC50,Trypanosoma cruzi [2],8.7 µM
same,Ratio IC50,Trypanosoma cruzi [19],10
same,EC50,Trypanosoma cruzi [6],9.9 µM
same,CC50,C2C12,> 10 µM
same,EC50,[3],13 µM
same,CC50,NHDF,> 100 µM
same,selectivity ratio,[20],> 10
same,EC50,[7],6.6 µM
NC(=O)/C=C/[C@H](Cc1ccccc1)NC(=O)[C@H](Cc1ccccc1)NC(=O)OCc1ccccc1,kinact/Ki,[4],21.7 M⁻¹ s⁻¹
O=C(N[C@@H](Cc1ccccc1)C(=O)N[C@H](/C=C/c1ccccn1)Cc1ccccc1)OCc1ccccc1,K,[13],0.0012 s⁻¹
same,solubility,[1],<= 30 uM
same,EC50,Trypanosoma cruzi [2],> 20 µM
same,CC50,C2C12,> 10 µM
same,CC50,NHDF,> 100 µM
O=C(N[C@@H](Cc1ccccc1)C(=O)N[C@H](/C=C/c1ccccc1)Cc1ccccc1)OCc1ccccc1,solubility,[1],<= 2 uM
NC(=O)/C=C/[C@H](CCc1ccccc1)NC(=O)[C@H](Cc1ccccc1)NC(=O)OCc1ccccc1,kinact/Ki,[4],1700 M⁻¹ s⁻¹
